# PMC9870890 (Nature Communications, 2023)
# Substitutions are numbered along the chain they refer to. Where “and” joins values, the source holds several entries; their conditions need not be identical. Identical values can stand only once.
# What was measured:
# M2R and GoA = biological target: T1, M2R and GoA (Homo sapiens, UniProt P08172); experiment: GTPase-Glo assay (GTP turnover) with purified M2R and GoA; type: biochemical; details: for Residual GTP (%): 90 min, normalized to GoA alone; for GTP-turnover, Fig. 1c (GTPase-Glo luminescence): 100 μM ACh or 10 μM Ixo, M2R-GoA
# T1 construct: FLAG (N); 8xHis (C); made in house; host or cells: Sf9 insect cells (receptor)
# T1 sequence (P59768 2-68, one chain of several): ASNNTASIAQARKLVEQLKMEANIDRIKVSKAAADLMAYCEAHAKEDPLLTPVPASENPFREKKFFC
# T1 sequence (P09471 2-354, one chain of several, further chain): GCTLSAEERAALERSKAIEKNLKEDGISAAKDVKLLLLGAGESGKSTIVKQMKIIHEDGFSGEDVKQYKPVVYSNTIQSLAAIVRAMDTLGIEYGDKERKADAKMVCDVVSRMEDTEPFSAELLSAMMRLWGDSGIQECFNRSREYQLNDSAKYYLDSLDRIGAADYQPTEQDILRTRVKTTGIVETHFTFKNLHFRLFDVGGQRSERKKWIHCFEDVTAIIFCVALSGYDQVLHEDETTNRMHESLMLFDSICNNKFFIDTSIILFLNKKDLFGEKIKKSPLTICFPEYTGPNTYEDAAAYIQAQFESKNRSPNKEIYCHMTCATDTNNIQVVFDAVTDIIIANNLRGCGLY
# T1 sequence (P62873 whole entry, one chain of several, further chain): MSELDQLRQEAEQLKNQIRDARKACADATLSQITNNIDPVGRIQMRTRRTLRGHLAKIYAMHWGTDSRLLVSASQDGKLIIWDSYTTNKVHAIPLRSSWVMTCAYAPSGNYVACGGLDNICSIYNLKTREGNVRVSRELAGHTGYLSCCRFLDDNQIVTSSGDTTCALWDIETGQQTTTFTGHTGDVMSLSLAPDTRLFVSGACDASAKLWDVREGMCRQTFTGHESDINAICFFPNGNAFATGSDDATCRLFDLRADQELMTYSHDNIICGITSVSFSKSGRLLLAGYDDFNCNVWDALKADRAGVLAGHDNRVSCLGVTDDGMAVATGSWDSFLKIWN
# Method: The receptors for GTPase-Glo^TM assay were expressed and purified as described above and frozen at −80 °C before use. […] The GTPase reaction was incubated at room temperature (22–25 °C) for different times (15–90 min). […] After incubation, 5 μL reconstituted 1xGTPase-Glo^TM Reagent (Promega) was added to the completed GTPase reaction, mixed briefly and incubated with shaking for 30 min at room temperature (22–25 °C) to convert the remaining GTP into ATP. Then 10 μL Detection Reagent (Promega) was added to the system and incubated for 5-10 min at room temperature (22–25 °C) to convert the ATP into luminescent signals. Luminescence intensity was quantified using a Multimode Plate Reader (PerkinElmer) luminescence counter.
# Mock = experiment: NanoBiT-GoA dissociation assay, Mock-transfected cells (control); type: cell-based
# M2R = biological target: T2, M2R (Homo sapiens, UniProt P08172); experiment: biochemical; type: binding; design: expressed in transfected cells
# T2 sequence (P08172 1-466): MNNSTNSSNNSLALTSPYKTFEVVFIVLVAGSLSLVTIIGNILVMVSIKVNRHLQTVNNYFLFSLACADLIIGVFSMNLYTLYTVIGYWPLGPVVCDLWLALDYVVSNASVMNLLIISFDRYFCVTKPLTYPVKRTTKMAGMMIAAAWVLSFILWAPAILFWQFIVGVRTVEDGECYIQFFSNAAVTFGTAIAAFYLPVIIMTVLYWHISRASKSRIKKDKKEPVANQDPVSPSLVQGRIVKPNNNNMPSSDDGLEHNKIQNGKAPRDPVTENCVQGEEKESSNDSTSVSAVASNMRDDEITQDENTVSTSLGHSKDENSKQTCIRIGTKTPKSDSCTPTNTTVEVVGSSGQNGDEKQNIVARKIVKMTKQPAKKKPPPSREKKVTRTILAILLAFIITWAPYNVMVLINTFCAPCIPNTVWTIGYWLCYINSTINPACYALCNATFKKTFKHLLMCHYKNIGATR
# Method: Purified M2R receptor was reconstituted into high-density lipoprotein (HDL) particles constituting apolipoprotein A1(APOA1) and mixture of POPG: POPC lipids with 3:2 (mol:mol)ratio as previously described. […] Membranes or HDL particles were separated from excess [^3H]-NMS by Whatman GF/B filters using a Brandel 48-well harvester. The bound radioligand were read on a liquid scintillation counter (MicroBeta Jet, PerkinElmer). Data were analyzed by GraphPad Prism 9.2.0.
# human, wild-type M2R = biological target: T3, human, wild-type M2R (Homo sapiens, UniProt P08172); experiment: NanoBiT-G-protein (GoA) dissociation assay, wild-type M2R, HEK293A cells; type: cell-based; details: for NanoBiT-GoA dissociation signal, Mean (Veh = 1.000): n = 4
# T3 construct: expressed in transfected cells; host or cells: HEK293A
# T3 sequence (P08172 1-466): T2 sequence (P08172 1-466)
# Method: Plasmid transfection for HEK293A cells (Thermo Fisher Scientific) was performed by combining 25 µl (volume is per 10-cm culture dish) of polyethylenimine solution (1 mg/mL) and a mixture of plasmids each encoding the large fragment (LgBiT)-containing the GαoA subunit (500 ng), the small fragment (SmBiT)-fused Gγ2 subunit with the C68S mutation (2.5 µg) and the untagged Gβ1 subunit (2.5 µg), along with a human, wild-type M2R (1 µg; containing N-terminal HA-derived signal sequence followed by the FLAG-epitope tag). After an incubation for one day, the transfected cells were harvested, pelleted with centrifugation, and suspended in 9 ml of Hank’s balanced saline solution (HBSS) containing 0.01% bovine serum albumin (BSA fatty acid–free grade, SERVA) and 5 mM HEPES (pH 7.4) (assay buffer). The cell suspension was dispensed in a white 96-well plate at a volume of 70 µl per well and mixed with 20 µl of 50 µM coelenterazine (Carbosynth) diluted in the assay buffer. After 2 h incubation at room temperature, the plate was measured for baseline luminescence (SpectraMax L, Molecular Devices) and 10 µl of titrated concentrations of LY2119620 diluted in the assay buffer were added. […] Kinetics data points from 5 min to 10 min were averaged and normalized to the initial count and used as a G-protein dissociation index. […] The G-protein dissociation signals were fitted to a four-parameter sigmoidal concentration-response curve (GraphPad Prism8). For each experiment, we calculated Emax by normalizing Span to the LY2119620-free condition and ∆pEC50 by subtracting pEC50 of the LY2119620-free condition performed in parallel and used the values to denote allosteric modulator activity.
# M2R L129^34.51A mutant = biological target: T4, M2R L129^34.51A mutant (Homo sapiens, UniProt P08172, L129A); experiment: NanoBiT-GoA dissociation assay, L129A mutant M2R
# T4 sequence (P08172 1-466 L129A): T2 sequence (P08172 1-466) with L129A
# Method: Plasmid transfection for HEK293A cells (Thermo Fisher Scientific) was performed by combining 25 µl (volume is per 10-cm culture dish) of polyethylenimine solution (1 mg/mL) and a mixture of plasmids each encoding the large fragment (LgBiT)-containing the GαoA subunit (500 ng), the small fragment (SmBiT)-fused Gγ2 subunit with the C68S mutation (2.5 µg) and the untagged Gβ1 subunit (2.5 µg), along with a human, wild-type M2R (1 µg; containing N-terminal HA-derived signal sequence followed by the FLAG-epitope tag). After an incubation for one day, the transfected cells were harvested, pelleted with centrifugation, and suspended in 9 ml of Hank’s balanced saline solution (HBSS) containing 0.01% bovine serum albumin (BSA fatty acid–free grade, SERVA) and 5 mM HEPES (pH 7.4) (assay buffer). The cell suspension was dispensed in a white 96-well plate at a volume of 70 µl per well and mixed with 20 µl of 50 µM coelenterazine (Carbosynth) diluted in the assay buffer. […] Kinetics data points from 5 min to 10 min were averaged and normalized to the initial count and used as a G-protein dissociation index. For the mutant study, the cell culture and the transfection mixture were scaled down to a 6-cm dish (4 ml culture media) and the transfected cells were suspended in 4 ml of the assay buffer and seeded in the 96-well plate at a volume of 80 µL. The G-protein dissociation signals were fitted to a four-parameter sigmoidal concentration-response curve (GraphPad Prism8). For each experiment, we calculated Emax by normalizing Span to the LY2119620-free condition and ∆pEC50 by subtracting pEC50 of the LY2119620-free condition performed in parallel and used the values to denote allosteric modulator activity. Similarly, for the mutant study, we calculated ∆pEC50 by subtracting pEC50 of the WT (1:1) condition performed in parallel.
structure (smiles),measurement,setting,value
"CC(=O)OCC[N+](C)(C)C [ACh, acetylcholine]",Residual GTP (%),M2R and GoA; +DMSO,45.3131% and 35.9349% and 31.3573% and 30.3217%
same,Residual GTP (%),M2R and GoA; +LY2119620 (100 μM),63.4937% and 52.5673% and 44.2408% and 50.614% and 40.1818%
same,GTP turnover rate and efficacy,M2R and GoA; agonist-bound M2R,much lower GTP turnover rate and efficacy than Ixo-bound M2R
same,"GTP-turnover, Fig. 1c (GTPase-Glo luminescence)",M2R and GoA; time 15 min,580068 and 653066 and 555333 and 703107
same,"GTP-turnover, Fig. 1c (GTPase-Glo luminescence)",M2R and GoA; time 30 min,338018 and 388059 and 371258 and 437553
same,"GTP-turnover, Fig. 1c (GTPase-Glo luminescence)",M2R and GoA; time 45 min,365372 and 350617 and 319511 and 370440
same,"GTP-turnover, Fig. 1c (GTPase-Glo luminescence)",M2R and GoA; time 60 min,469821 and 332109 and 488525 and 361230
same,"GTP-turnover, Fig. 1c (GTPase-Glo luminescence)",M2R and GoA; time 90 min,354237 and 250414 and 339305 and 252170
same,"NanoBiT-GoA dissociation signal, Mean (Veh = 1.000)","Mock; ACh Log [M] -4, n = 3",0.999
same,"NanoBiT-GoA dissociation signal, Mean (Veh = 1.000)","Mock; ACh Log [M] -5, n = 3",0.997
same,"NanoBiT-GoA dissociation signal, Mean (Veh = 1.000)","Mock; ACh Log [M] -6, n = 3",0.997
same,"NanoBiT-GoA dissociation signal, Mean (Veh = 1.000)","Mock; ACh Log [M] -7, n = 3",0.998
same,"NanoBiT-GoA dissociation signal, Mean (Veh = 1.000)","Mock; ACh Log [M] -8, n = 3",1.007
same,"NanoBiT-GoA dissociation signal, Mean (Veh = 1.000)","Mock; ACh Log [M] -9, n = 3",1.008
same,"NanoBiT-GoA dissociation signal, Mean (Veh = 1.000)","Mock; ACh Log [M] -10, n = 3",1.011
same,increase of affinity on addition of GoA,M2R; M2R in HDL particles,~ 65 fold
same,"competition curve data, Fig. 1b ([3H]-NMS binding)","M2R; log[M] -4, without GoA",5.782 and 5.65 and 7.077
same,"competition curve data, Fig. 1b ([3H]-NMS binding)","M2R; log[M] -5, +GoA",8.6818 and 10.1951 and 7.089
same,"competition curve data, Fig. 1b ([3H]-NMS binding)","M2R; log[M] -5, without GoA",30.6813 and 33.2587 and 33.4266
same,"competition curve data, Fig. 1b ([3H]-NMS binding)","M2R; log[M] -6, +GoA",19.1734 and 19.6734 and 19.2354
same,"competition curve data, Fig. 1b ([3H]-NMS binding)","M2R; log[M] -6, without GoA",75.6364 and 71.4046
same,"competition curve data, Fig. 1b ([3H]-NMS binding)","M2R; log[M] -7, +GoA",35.8423 and 48.5862 and 43.4886
same,"competition curve data, Fig. 1b ([3H]-NMS binding)","M2R; log[M] -7, without GoA",93.5585 and 94.8412 and 97.6703
same,"competition curve data, Fig. 1b ([3H]-NMS binding)","M2R; log[M] -8, +GoA",63.401 and 72.72 and 79.9283
same,"competition curve data, Fig. 1b ([3H]-NMS binding)","M2R; log[M] -8, without GoA",87.5165 and 90.6813 and 92.0839
same,"competition curve data, Fig. 1b ([3H]-NMS binding)","M2R; log[M] -9, +GoA",85.6233 and 86.2605 and 91.0793
same,"competition curve data, Fig. 1b ([3H]-NMS binding)","M2R; log[M] -9, without GoA",98.6534 and 93.3786 and 102.25
same,"competition curve data, Fig. 1b ([3H]-NMS binding)","M2R; log[M] -10, +GoA",98.2875 and 107.686 and 94.0263
same,"competition curve data, Fig. 1b ([3H]-NMS binding)","M2R; log[M] -10, without GoA",99.5165 and 100.667 and 99.8162
same,binding affinity lower than Ixo,M2R; purified M2R reconstituted in HDL particles,~ 90 fold
same,∆pEC50,"human, wild-type M2R; WT (1:1), reference",0.000
same,"NanoBiT-GoA dissociation signal, Mean (Veh = 1.000)","human, wild-type M2R; WT (1:1), ACh Log [M] -4",0.337
same,"NanoBiT-GoA dissociation signal, Mean (Veh = 1.000)","human, wild-type M2R; WT (1:1), ACh Log [M] -5",0.351
same,"NanoBiT-GoA dissociation signal, Mean (Veh = 1.000)","human, wild-type M2R; WT (1:1), ACh Log [M] -6",0.394
same,"NanoBiT-GoA dissociation signal, Mean (Veh = 1.000)","human, wild-type M2R; WT (1:1), ACh Log [M] -7",0.558
same,"NanoBiT-GoA dissociation signal, Mean (Veh = 1.000)","human, wild-type M2R; WT (1:1), ACh Log [M] -8",0.840
same,"NanoBiT-GoA dissociation signal, Mean (Veh = 1.000)","human, wild-type M2R; WT (1:1), ACh Log [M] -9",0.978
same,∆pEC50,"human, wild-type M2R; WT (1:2)",-0.277 and -0.205 and -0.364 and -0.275
same,"NanoBiT-GoA dissociation signal, Mean (Veh = 1.000)","human, wild-type M2R; WT (1:2), ACh Log [M] -4",0.345
same,"NanoBiT-GoA dissociation signal, Mean (Veh = 1.000)","human, wild-type M2R; WT (1:2), ACh Log [M] -5",0.355
same,"NanoBiT-GoA dissociation signal, Mean (Veh = 1.000)","human, wild-type M2R; WT (1:2), ACh Log [M] -6",0.427
same,"NanoBiT-GoA dissociation signal, Mean (Veh = 1.000)","human, wild-type M2R; WT (1:2), ACh Log [M] -7",0.636
same,"NanoBiT-GoA dissociation signal, Mean (Veh = 1.000)","human, wild-type M2R; WT (1:2), ACh Log [M] -8",0.898
same,"NanoBiT-GoA dissociation signal, Mean (Veh = 1.000)","human, wild-type M2R; WT (1:2), ACh Log [M] -9",0.988
same,∆pEC50,M2R L129^34.51A mutant,-0.530 and -0.558 and -0.440
same,"NanoBiT-GoA dissociation signal, Mean (Veh = 1.000)","M2R L129^34.51A mutant; ACh Log [M] -4, n = 3",0.350
same,"NanoBiT-GoA dissociation signal, Mean (Veh = 1.000)","M2R L129^34.51A mutant; ACh Log [M] -5, n = 3",0.368
same,"NanoBiT-GoA dissociation signal, Mean (Veh = 1.000)","M2R L129^34.51A mutant; ACh Log [M] -6, n = 3",0.470
same,"NanoBiT-GoA dissociation signal, Mean (Veh = 1.000)","M2R L129^34.51A mutant; ACh Log [M] -8, n = 3",0.926
same,"NanoBiT-GoA dissociation signal, Mean (Veh = 1.000)","M2R L129^34.51A mutant; ACh Log [M] -9, n = 3",0.991
same,"NanoBiT-GoA dissociation signal, Mean (Veh = 1.000)","M2R L129^34.51A mutant; ACh Log [M] -10, n = 3",0.994
